Experimental data as given in patent publication US20110136801A1, “Novel Compounds” (Dainippon Sumitomo Pharma Co. Ltd., priority 2009, published 2011).

Columns and labels:
Male Brown Norway rats = experiment: Antigen-induced pulmonary inflammation in a rat asthma model (eosinophils and Th2 cytokines in BALF); format: in vivo; settings: BALF 48 hours after challenge
Description: Rats were sensitized and challenged to produce allergic airway inflammation in a similar manner to that described by Underwood et al (British Journal of Pharmacology 2002; 137: 263-275, 2002). Male Brown Norway rats were sensitized subcutaneously with ovalbumin (OVA) and aluminum hydroxide on day 0, and challenged with aerosolized OVA solution on day 14. The test compound was administered twice intratracheally 24 hours before and 24 hours after the OVA-challenge and bronchoalveolar lavage fluid (BALF) was collected 48 hours after the OVA-challenge. Then eosinophils and Th2 cytokines (IL-5 and IL-13) in the BALF were measured to evaluate efficacy of the test compounds of this invention.

human TLR7 = biological target: T1, human TLR7 (Homo sapiens, UniProt Q9NYK1); experiment: Human TLR7 Assay (SEAP reporter in HEK293 cells); format: cell-based; settings: HEK293 cell line expressing human TLR7 and pNiFty2-SEAP reporter, overnight incubation at 37° C., 0.1% DMSO; read-out: hTLR7 EC50;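 note: Read-out is secreted alkaline phosphatase made under an NFkB/ELAM-1 composite promoter, reporting TLR7-triggered NFkB activation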
T1 construct: expressed in transfected cells; host or cells: HEK293 cell line stably expressing the pNiFty2-SEAP reporter plasmid; TLR7 in pUNO vector, blasticidin selection
T1 sequence (Q9NYK1 27-1049): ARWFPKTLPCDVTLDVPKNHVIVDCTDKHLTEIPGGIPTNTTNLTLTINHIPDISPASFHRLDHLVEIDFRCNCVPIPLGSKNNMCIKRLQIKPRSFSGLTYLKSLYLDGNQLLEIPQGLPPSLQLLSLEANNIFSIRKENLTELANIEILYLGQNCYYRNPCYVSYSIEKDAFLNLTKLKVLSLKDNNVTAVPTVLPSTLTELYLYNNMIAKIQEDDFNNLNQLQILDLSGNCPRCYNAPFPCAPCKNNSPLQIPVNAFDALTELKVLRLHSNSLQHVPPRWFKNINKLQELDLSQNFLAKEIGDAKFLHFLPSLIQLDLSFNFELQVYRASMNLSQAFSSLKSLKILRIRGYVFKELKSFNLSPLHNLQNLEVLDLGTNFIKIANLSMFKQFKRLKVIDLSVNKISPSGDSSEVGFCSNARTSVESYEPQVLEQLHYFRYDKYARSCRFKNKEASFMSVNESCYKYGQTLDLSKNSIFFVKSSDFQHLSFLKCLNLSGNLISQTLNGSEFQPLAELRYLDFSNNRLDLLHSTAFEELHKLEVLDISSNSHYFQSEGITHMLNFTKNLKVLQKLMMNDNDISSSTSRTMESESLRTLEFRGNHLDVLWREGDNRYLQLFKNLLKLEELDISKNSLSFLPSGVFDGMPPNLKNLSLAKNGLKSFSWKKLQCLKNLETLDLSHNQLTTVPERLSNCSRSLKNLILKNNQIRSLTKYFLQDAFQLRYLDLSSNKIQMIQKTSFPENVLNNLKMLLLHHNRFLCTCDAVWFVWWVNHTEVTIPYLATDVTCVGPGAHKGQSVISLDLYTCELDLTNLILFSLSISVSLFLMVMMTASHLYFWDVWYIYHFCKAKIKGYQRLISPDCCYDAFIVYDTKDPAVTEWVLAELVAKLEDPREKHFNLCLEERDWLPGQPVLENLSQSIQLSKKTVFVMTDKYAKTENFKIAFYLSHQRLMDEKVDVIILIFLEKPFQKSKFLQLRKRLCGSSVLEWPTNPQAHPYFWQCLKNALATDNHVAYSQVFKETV

[1] = 0.1 mg/kg intratracheally 24 hours before and 24 hours after OVA-challenge
[2] = 1.0 mg/kg intratracheally 24 hours before and 24 hours after OVA-challenge
[3] = 0.03 mg/kg intratracheally 24 hours before and 24 hours after OVA-challenge
[4] = 0.3 mg/kg intratracheally 24 hours before and 24 hours after OVA-challenge

EC50 (human TLR7) [nM] | Compound | other results
 | CCCCc1nc2c(N)nc3ccccc3c2n1CCCN(Cc1cccc(OCC(=O)OC)c1)C(=O)CN(C)C [Example 9, Methyl (3-{[[3-(4-amino-2-butyl-1H-imidazo[4,5-c]quinolin-1-yl)propyl](N,N-dimethylglycyl)amino]methyl}phenoxy)acetate] | Eosinophiles in BALF, inhibition (%) to OVA-Challenge control (Male Brown Norway rats; [1]): 53%; IL-5 in BALF, inhibition (%) to OVA-Challenge control (Male Brown Norway rats; [1]): 66%; IL-13 in BALF, inhibition (%) to OVA-Challenge control (Male Brown Norway rats; [1]): 89%; Eosinophiles in BALF, inhibition (%) to OVA-Challenge control (Male Brown Norway rats; [2]): 77%; IL-5 in BALF, inhibition (%) to OVA-Challenge control (Male Brown Norway rats; [2]): 72%; IL-13 in BALF, inhibition (%) to OVA-Challenge control (Male Brown Norway rats; [2]): 85%
174 | CCOCc1nc2c(N)nc3ccccc3c2n1CCCN(Cc1cccc(OC(C)(C)C(=O)OC)c1)C(=O)CN(CC)CC [Example 163, Methyl 2-{3-[(N-{3-[4-amino-2-(ethoxymethyl)-1H-imidazo[4,5-c]quinolin-1-yl]propyl}-2-{diethylamino}acetamido)methyl]phenoxy}-2-methylpropanoate] | Eosinophiles in BALF, inhibition (%) to OVA-Challenge control (Male Brown Norway rats; [3]): 45%; IL-13 in BALF, inhibition (%) to OVA-Challenge control (Male Brown Norway rats; [3]): 50%; Eosinophiles in BALF, inhibition (%) to OVA-Challenge control (Male Brown Norway rats; [4]): 65%; IL-13 in BALF, inhibition (%) to OVA-Challenge control (Male Brown Norway rats; [4]): 80%
262 | CCOCc1nc2c(N)nc3ccccc3c2n1CCCN(Cc1cccc(OCC(=O)OC(C)C)c1)C(=O)CN(CC)CC [Example 161, Isopropyl 2-{3-[(N-{3-[4-amino-2-(ethoxymethyl)-1H-imidazo[4,5-c]quinolin-1-yl]propyl}-2-{diethylamino}acetamido)methyl]phenoxy}acetate] | Eosinophiles in BALF, inhibition (%) to OVA-Challenge control (Male Brown Norway rats; [3]): 54%; IL-13 in BALF, inhibition (%) to OVA-Challenge control (Male Brown Norway rats; [3]): No effect; Eosinophiles in BALF, inhibition (%) to OVA-Challenge control (Male Brown Norway rats; [4]): 66%; IL-13 in BALF, inhibition (%) to OVA-Challenge control (Male Brown Norway rats; [4]): 64%
73.6 | CCCCc1nc2c(N)nc3ccccc3c2n1CCCN(Cc1cccc(OCC(=O)OC)c1)C(=O)CN(CC)CC [Example 14, Methyl (3-{[[3-(4-amino-2-butyl-1H-imidazo[4,5-c]quinolin-1-yl)propyl](N,N-diethylglycyl)amino]methyl}phenoxy)acetate] | 
> 10000 | CCN(CC)CC(=O)N(CCn1c(CCOC)nc2c(N)nc3ccccc3c21)Cc1cccc(OCC(=O)OC)c1 [Example 102, Methyl 2-{3-[(N-{2-[4-amino-2-(2-methoxyethyl)-1H-imidazo[4,5-c]quinolin-1-yl]ethyl}-2-{diethylamino}acetamido)methyl]phenoxy}acetate] | 
432 | CCCCc1nc2c(N)nc3ccccc3c2n1CCCN(Cc1cccc(OCC(=O)OC)c1)C(=O)CN1CCN(CCOC)CC1 [Example 12, Methyl {3-[([3-(4-amino-2-butyl-1H-imidazo[4,5-c]quinolin-1-yl)propyl]{[4-(2-methoxyethyl)piperazin-1-yl]acetyl}amino)methyl]phenoxy}acetate] | 
69 | CCOC(=O)C1(Oc2cccc(CN(CCCn3c(CCOC)nc4c(N)nc5ccccc5c43)C(=O)CN(CC)CC)c2)CCC1 [Example 59, Ethyl 1-{3-[(N-{3-[4-amino-2-(2-methoxyethyl)-1H-imidazo[4,5-c]quinolin-1-yl]propyl}-2-{diethylamino}acetamido)methyl]phenoxy}cyclobutanecarboxylate] | 
86.1 | CCCCc1nc2c(N)nc3ccccc3c2n1CCCN(Cc1cccc(OC(C)(C)C(=O)OCC)c1)C(=O)CN(CC)CC [Example 153, Ethyl 2-[3-({N-[3-(4-amino-2-butyl-1H-imidazo[4,5-c]quinolin-1-yl)propyl]-2-(diethylamino)acetamido}methyl)phenoxy]-2-methylpropanoate] | 
57 | COCCc1nc2c(N)nc3ccccc3c2n1CCCCN(Cc1ccc(F)c(OCC(=O)OC(C)C)c1)C(=O)NCCN1CCCCC1 [Example 139, Isopropyl 2-{5-[(1-{4-[4-amino-2-(2-methoxyethyl)-1H-imidazo[4,5-c]quinolin-1-yl]butyl}-3-{2-(piperidin-1-yl)ethyl}ureido)methyl]-2-fluorophenoxy}acetate] | 
57.5 | COCCc1nc2c(N)nc3ccccc3c2n1CCCCNC(=O)N(CCN1CCCCC1)Cc1ccc(F)c(OCC(=O)OC(C)C)c1 [Example 142, Isopropyl 2-{5-[(3-{4-[4-amino-2-(2-methoxyethyl)-1H-imidazo[4,5-c]quinolin-1-yl]butyl}-1-{2-(piperidin-1-yl)ethyl}ureido)methyl]-2-fluorophenoxy}acetate] | 
37.5 | CCOC(=O)COc1ccc(CN(CCN2CCCCC2)C(=O)NCCCCn2c(CCOC)nc3c(N)nc4ccccc4c32)cc1 [Example 131, Ethyl 2-{4-[(3-{4-[4-amino-2-(2-methoxyethyl)-1H-imidazo[4,5-c]quinolin-1-yl]butyl}-1-{2-(piperidin-1-yl)ethyl}ureido)methyl]phenoxy}acetate] | 
475 | CCOCc1nc2c(N)nc3ccccc3c2n1CCCN(Cc1cccc(OCC(=O)OC(C)C)c1F)C(=O)CN(CC)CC [Example 166, Isopropyl 2-{3-[(N-{3-[4-amino-2-(ethoxymethyl)-1H-imidazo[4,5-c]quinolin-1-yl]propyl}-2-{diethylamino}acetamido)methyl]-2-fluorophenoxy}acetate] | 
83.4 | COCCc1nc2c(N)nc3ccccc3c2n1CCCN(Cc1cccc(OCC(=O)OC(C)C)c1)C(=O)CN(C)C [Example 113, Isopropyl 2-{3-[(N-{3-[4-amino-2-(2-methoxyethyl)-1H-imidazo[4,5-c]quinolin-1-yl]propyl}-2-{dimethylamino}acetamido)methyl]phenoxy}acetate] | 
49.9 | CCN(CC)CC(=O)N(CCCn1c(CCOC)nc2c(N)nc3ccccc3c21)Cc1cccc(OCC(=O)OCC(C)C)c1 [Example 28, Isobutyl 2-{3-[(N-{3-[4-amino-2-(2-methoxyethyl)-1H-imidazo[4,5-c]quinolin-1-yl]propyl}-2-(diethylamino)acetamido)methyl]phenoxy}acetate] | 
405 | COCCc1nc2c(N)nc3ccccc3c2n1CCCN(Cc1ccc(OC)c(OCC(=O)OC(C)C)c1)C(=O)CN(C)C [Example 75, Isopropyl 2-{5-[(N-{3-[4-amino-2-(2-methoxyethyl)-1H-imidazo[4,5-c]quinolin-1-yl]propyl}-2-{dimethylamino}acetamido)methyl]-2-methoxyphenoxy}acetate] | 
11.2 | CCOC(=O)COc1ccc(CN(CCCCn2c(CCOC)nc3c(N)nc4ccccc4c32)C(=O)NCCN2CCCCC2)cc1 [Example 125, Ethyl 2-{4-[(1-{4-[4-amino-2-(2-methoxyethyl)-1H-imidazo[4,5-c]quinolin-1-yl]butyl}-3-{2-(piperidin-1-yl)ethyl}ureido)methyl]phenoxy}acetate] | 
139 | CCCCc1nc2c(N)nc3ccccc3c2n1CCCN(Cc1cccc(OCC(=O)OC(C)C)c1)C(=O)CN(C)C [Example 159, Isopropyl 2-[3-({N-[3-(4-amino-2-butyl-1H-imidazo[4,5-c]quinolin-1-yl)propyl]-2-(dimethylamino)acetamido}methyl)phenoxy]acetate] | 
1460 | CCN(CC)CC(=O)N(CCCn1c(CCOC)nc2c(N)nc3ccccc3c21)Cc1cccc(OCC(=O)OCCO)c1 [Example 30, 2-Hydroxyethyl 2-{3-[(N-{3-[4-amino-2-(2-methoxyethyl)-1H-imidazo[4,5-c]quinolin-1-yl]propyl}-2-(diethylamino)acetamido)methyl]phenoxy}acetate] | 
56.1 | CCN(CC)CC(=O)N(CCCn1c(CCOC)nc2c(N)nc3ccccc3c21)Cc1cccc(OCC(=O)OC2CCC2)c1 [Example 81, Cyclobutyl 2-{3-[(N-{3-[4-amino-2-(2-methoxyethyl)-1H-imidazo[4,5-c]quinolin-1-yl]propyl}-2-{diethylamino}acetamido)methyl]phenoxy}acetate] | 
